Laboratory results reported in publication PMC12474757, “Paving the way for future PSMA inhibitors: insights from comparative preclinical evaluations of structure modifications” (EJNMMI Radiopharmacy and Chemistry, 2025).
Where “and” joins values, the source holds several entries; their conditions need not be identical. Identical values can stand only once.

Legend:
[1] = Octanol/water partition coefficient (log P); type: physicochemical; conditions: octanol/PBS; mean ± SD n = 6
Experimental: Octanol/water partition coefficient (P) was determined as described before (Petrik et al. [2012]). Briefly, 600 µL PBS was added to the total volume of the ⁶⁸Ga-P15. New tube was filled with 50 µL of the above-mentioned solution, 500 µL octanol and 450 µL PBS. Five more samples were prepared in this way and then placed on an orbital shaker for 20 min. The samples were then centrifuged at 15,000 rpm for 1 min. After centrifugation, two samples were taken from each tube, one from the octanol and the other from the aqueous phase. The radioactivity of these samples was measured using an automated gamma computer and the formula log P = log(Aoctanol/AH2O) was employed to calculate log P. The same procedure was applied when determining the partition coefficient of ⁶⁸Ga-P16, ⁶⁸Ga-P19, and ⁶⁸Ga-PSMA-617.

human plasma proteins = test: Binding to human plasma proteins; type: in vitro ADME; conditions: for Protein binding (%): human plasma, 37 °C, n = 2; for Binding rate to human plasma proteins: overall statement, incubation up to 120 min
Experimental: Binding to human plasma proteins was determined following this procedure: 10 µL of the ⁶⁸Ga-P15 with radioactivity of 45 kBq/100 µL was mixed with 190 µL of human plasma. The sample was then incubated at 37 °C. After 0, 30, 60 and 120 min 25 µL of the sample was collected, applied to the appropriate column and centrifuged at 2000 g for 2 minutes. The radioactivity of the samples was then measured using a gamma counter 2480 Wizard^2 (PerkinElmer, Waltham, MA, USA), and then the binding to plasma proteins was calculated using the following formula % plasma protein binding = (Aelution/Atotal)×100. The same procedure was applied when determining binding to plasma proteins of ⁶⁸Ga-P16, ⁶⁸Ga-P19, and ⁶⁸Ga-PSMA-617.

[2] = Stability in human plasma/serum (radiochemical purity by HPLC); type: in vitro ADME; conditions: for Stability in human serum (%): radiochemical purity, 37 °C, n = 1
Experimental: Quality control, i.e. radiochemical purity, of the ^68Ga-labelled PSMA inhibitors was evaluated by analytical high performance liquid chromatography (HPLC; Dionex UltiMate 3000, Thermo Scientific, Waltham, Massachusetts, USA) using the following equipment: ACE 3 C18 column; 150 × 3 mm, 3 μm (Advanced Chromatography Technologies Ltd, Aberdeen, UK), with gradient elution A: H2O/acetonitrile (ACN); B:0.1% trifluoroacetic acid (TFA)/H2O: 0–3 min, 0% ACN; 3–10 min, 0 − 50% ACN; 10–13 min, 50 − 80% ACN; 13–15 min, 80–0% ACN, for 15 min at a flow rate of 1 mL/min. Radiometric detection was performed using a GABI Star radiodetector (Raytest GmbH, Straubenhardt, Germany) and for chromatogram quantification Chromatography Data System (CDS) - Chromeleon software (Thermo Scientific, USA) was used. The actual sample injection was performed using a Hamilton microinjector (Hamilton, USA).
Plasma stability was determined as follows. To 100 µL of ⁶⁸Ga-P15 with radioactivity of 45 kBq/100 µL, 400 µL of human plasma was added and mixed. The mixture was incubated at 37 °C and 100 µL samples were taken at 30, 60 and 120 min. These samples were then mixed with 200 µL of acetonitrile and placed on a shaker for 1 min. The sample was then centrifuged at 15,000 rpm for 3 min. After centrifugation, the supernatant was collected for radiochemical purity analysis by HPLC. The same procedure was applied when determining plasma stability of ⁶⁸Ga-P16, ⁶⁸Ga-P19, and ⁶⁸Ga-PSMA-617.

PSMA (LNCaP cells) = molecular target: T1, PSMA (LNCaP cells) (Homo sapiens, UniProt Q04609); test: Competition assay on LNCaP cells against [68Ga]Ga-PSMA-617; type: binding; conditions: for IC50: competition with 5 nM [68Ga]Ga-PSMA-617, 60 min, 37 °C
T1 construct: host or cells: LNCaP
T1 sequence (Q04609 whole entry): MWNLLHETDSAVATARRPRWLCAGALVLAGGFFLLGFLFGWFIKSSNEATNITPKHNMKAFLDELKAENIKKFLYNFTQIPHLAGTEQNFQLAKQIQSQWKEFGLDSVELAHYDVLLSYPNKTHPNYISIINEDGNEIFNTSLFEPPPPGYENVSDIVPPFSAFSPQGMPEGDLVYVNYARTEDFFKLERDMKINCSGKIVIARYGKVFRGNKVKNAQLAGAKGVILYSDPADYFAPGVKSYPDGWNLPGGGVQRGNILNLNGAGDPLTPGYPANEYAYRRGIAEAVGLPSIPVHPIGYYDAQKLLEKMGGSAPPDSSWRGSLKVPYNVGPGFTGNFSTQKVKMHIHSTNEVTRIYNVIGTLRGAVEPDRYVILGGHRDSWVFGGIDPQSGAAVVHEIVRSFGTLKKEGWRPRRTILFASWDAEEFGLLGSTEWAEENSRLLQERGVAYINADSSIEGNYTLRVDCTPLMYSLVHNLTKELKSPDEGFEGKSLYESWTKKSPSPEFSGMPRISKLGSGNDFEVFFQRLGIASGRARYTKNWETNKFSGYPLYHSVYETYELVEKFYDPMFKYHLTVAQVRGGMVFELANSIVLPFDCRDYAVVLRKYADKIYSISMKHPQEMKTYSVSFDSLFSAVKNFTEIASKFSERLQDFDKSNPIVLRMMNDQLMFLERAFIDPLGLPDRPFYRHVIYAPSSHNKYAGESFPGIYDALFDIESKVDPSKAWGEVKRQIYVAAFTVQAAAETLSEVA
Experimental: The competition assay, LNCaP cells were seeded into poly-L-lysine coated 24-well plates in amount of 0.5 × 10^6 cells/well 24 h prior to the competition assay. The tested ligands (^68Ga-P15, ^68Ga-P16 and ^68Ga-P19) were added to the wells in concentrations 0, 1, 5, 10, 25, 50, 100, 500, 1000 and 5000 nM in triplicates. Afterwards, ^68Ga-labelled PSMA-617 was added to each well so its final concentration was 5 nM. All the ligands in this assay were dissolved in the buffer containing 25 mM Tris-HCl, 5.4 mM KCl, 1.8 mM CaCl2, 0.8 mM MgSO4, 5 mM glucose, and 140 mM NaCl in H2O (pH adjusted to 7.4). ^68Ga-PSMA-617 was incubated on cells for 60 min at 37 °C followed by its removal and washing the cells with PBS. Finally, the cells were disintegrated using 0.1 M NaOH and transferred into the scintillation vials for the gamma counting. The IC50 values were calculated by fitting the data using a nonlinear regression algorithm (GraphPad PRISM 7.0) and the data were assessed by t-test.

[3] = Stability in human plasma/serum (radiochemical purity by HPLC); type: in vitro ADME; conditions: 37 °C, incubation time 0 min, n = 1

Log P [1]	Protein binding (%) (human plasma proteins; incubation time 0 min)	Protein binding (%) (human plasma proteins; incubation time 30 min)	Protein binding (%) (human plasma proteins; incubation time 60 min)	Protein binding (%) (human plasma proteins; incubation time 120 min)	Binding rate to human plasma proteins (human plasma proteins) [%]	Stability in human serum (%) ([2]; incubation time 30 min)	Stability in human serum (%) ([2]; incubation time 60 min)	Stability in human serum (%) ([2]; incubation time 120 min)	IC50 fold higher than that of [68Ga]Ga-P16 (PSMA (LNCaP cells); competition assay) [fold]	IC50 (PSMA (LNCaP cells)) [µM]	Stability in human serum (%) [3] [%]	Radiochemical purity in human blood serum/plasma ([2]; 37 °C, 30, 60 and 120 min)	SMILES
–3,71 ± 0,14	26.7%	27.0%	29% and 29.4%	40% and 39.9%	≤ 40	98.9	99.8	99.4	~25	0.0973	99.0		O=C([O-])CN1CCN(CC(=O)[O-])CCN(CC(=O)N[C@H]2CC[C@H](NC(=O)[C@@H](Cc3ccc4ccccc4c3)NC(=O)CC[C@H](NC(=O)N[C@@H](CCC(=O)O)C(=O)O)C(=O)O)CC2)CCN(CC(=O)[O-])CC1.[68Ga+3] [[^68Ga]Ga-P15]
–3,07 ± 0,87	10% and 10.2%	10.9%	10.8%	13% and 13.4%	≤ 40	98.8	98.3	97.3		0.004	99.0	above 97%	O=C([O-])CN1CCN(CC(=O)[O-])CCN(CC(=O)N[C@H]2CC[C@H](NC(=O)[C@H](Cc3ccc4ccccc4c3)NC(=O)CC[C@H](NC(=O)N[C@@H](CCC(=O)O)C(=O)O)C(=O)O)CC2)CCN(CC(=O)[O-])CC1.[68Ga+3] [[^68Ga]Ga-P16]
–3,41 ± 0,13	56.6%	59% and 58.8%	58% and 57.7%	58% and 58.2%		99.3	99.8	99.9		0.0956	99.0		O=C([O-])CN1CCN(CC(=O)[O-])CCN(CC(=O)NCc2ccc(C(=O)N[C@H](C(=O)NCCCC[C@H](NC(=O)N[C@@H](CCC(=O)O)C(=O)O)C(=O)O)C(c3ccccc3)c3ccccc3)cc2)CCN(CC(=O)[O-])CC1.[68Ga+3] [[^68Ga]Ga-P19]
